Legend:
Human Liver ALP = biological target: T1, Human Liver ALP (Homo sapiens, UniProt P05186); assay: Ki of inhibitors for human liver ALP (Table 1); assay type: biochemical; details: Enzyme: Human Liver
T1 sequence (P05186 18-502 limits assumed): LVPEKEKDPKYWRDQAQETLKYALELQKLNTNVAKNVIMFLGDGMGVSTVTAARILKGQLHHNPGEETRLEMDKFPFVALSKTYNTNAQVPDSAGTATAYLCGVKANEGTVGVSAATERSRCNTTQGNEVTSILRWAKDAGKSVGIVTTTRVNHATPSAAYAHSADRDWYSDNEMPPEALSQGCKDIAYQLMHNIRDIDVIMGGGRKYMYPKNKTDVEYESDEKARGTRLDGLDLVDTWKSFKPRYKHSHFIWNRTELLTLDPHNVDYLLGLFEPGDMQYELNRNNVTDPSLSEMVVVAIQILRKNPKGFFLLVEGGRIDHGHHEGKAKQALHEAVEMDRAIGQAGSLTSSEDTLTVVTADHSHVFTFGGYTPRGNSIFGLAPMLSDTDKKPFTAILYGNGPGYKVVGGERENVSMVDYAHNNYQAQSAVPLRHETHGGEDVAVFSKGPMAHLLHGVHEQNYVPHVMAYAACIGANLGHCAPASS
Description: Another approach to reduce the effects of the human ALPs is to use inhibitors of ALPs in the substrate solution.

[1] = test system: endogenous ALP (high molecular weight and/or elevated normal ALP) in patient serum samples; assay: Background signal from endogenous ALP of patient serum samples on Stratus Fluorometric Analyzer, using each substrate/wash composition; parameters: species or system human; details: patient serum Samples 1-3 (FIGS. 1-3); ALP conjugate, 4-MUP substrate; rate in mv/min
Protocol: Three carcinoembryonic antigen (CEA) positive patient serum samples (Samples 1, 2, and 3) were identified as having high molecular weight ALP and/or elevated levels of normal ALP. These samples were tested using the compositions of this invention. The patient samples were evaluated on an automated immunoassay analyzer (the Stratus^R Fluorometric Analyzer from Baxter Diagnostics Inc.) which utilizes an ALP conjugate and a 4-MUP substrate. This automated analyzer combines the wash step with the substrate addition step. See, U.S. Pat. No. 4,517,288. The commercially available substrate composition (XWS) has the dual function of washing the solid phase and initiating the ALP reaction. […]
(§1) The samples were evaluated on the analyzer using each composition as the substrate/wash. […]
Five patient samples, Samples 1, 2, and 3 (as described in Example 1), Sample 4 (which originated from a patient who tested positive for colon cancer) and Sample 5 (which originated from a patient who tested positive for breast cancer) were identified as having high molecular weight ALP and/or elevated levels of normal ALP. These samples were evaluated using the compositions of this invention. The patient samples were evaluated on the automated immunoassay analyzer described in Example 1. […]
as §1

[2] = biological target: T2, ALPs in Sarcoma 180/TG ascites cells (Mus musculus, UniProt P09242); details: J. Med. Chem. 1977, 20: 563-566; cited from earlier work
T2 construct: host or cells: Sarcoma 180/TG ascites cells
T2 sequence (P09242 18-502 limits assumed): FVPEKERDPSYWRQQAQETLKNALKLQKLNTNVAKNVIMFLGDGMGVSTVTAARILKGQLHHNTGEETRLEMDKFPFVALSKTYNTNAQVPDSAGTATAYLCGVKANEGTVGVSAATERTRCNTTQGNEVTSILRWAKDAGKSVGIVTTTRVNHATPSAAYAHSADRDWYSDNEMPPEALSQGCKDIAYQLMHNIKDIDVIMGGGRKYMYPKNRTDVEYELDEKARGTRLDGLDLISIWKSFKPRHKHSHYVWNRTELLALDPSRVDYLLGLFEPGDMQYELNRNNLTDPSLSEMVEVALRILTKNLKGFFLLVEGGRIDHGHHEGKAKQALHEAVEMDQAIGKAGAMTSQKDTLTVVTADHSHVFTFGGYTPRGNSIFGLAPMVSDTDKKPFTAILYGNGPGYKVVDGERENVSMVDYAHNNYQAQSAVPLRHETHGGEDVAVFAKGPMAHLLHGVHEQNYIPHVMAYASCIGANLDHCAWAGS

SMILES | Ki (Human Liver ALP) | background signal generated from endogenous ALP / false positive reading [1] | Ki [2]
Brc1ccc([C@H]2CN3CCSC3=N2)cc1 [Bromolevamisole] | 98.5 µM |  | 
C1=CN2CC(c3ccc4ccccc4c3)N=C2S1 (stereo not shown) [Naphthyl, 5,6-Dihydro-6-(2-naphthyl)imidazo-[2,1-b]thiazole] | 30.3 µM | substantially lowers the background signal | ~1 µM

From patent US5948630A, “Method and composition for reducing the effects of endogenous alkaline phosphatase” (Dade Behring Inc., priority 1996, dated 1999)
